“And” between values parts separate entries of the source, which are not always exact repeats. Equal values may be shown once.

In this assay the test system is 636577-100-R-J1-PDC complex spheroid viability. The assay is described as follows: Anticancer human tumor 636577-100-R-J1-PDC patient-derived endometrial adenocarcinoma cell line growth inhibition [GQUAD]. The conditions noted are these: for viability, T/C: stronger effect = lower value. From the text:
DNA G-quadruplex Stabilizer Agents in Combinations in Complex Spheroids
A high-throughput screen of multi-cell type tumor spheroids was designed to identify active combinations of DNA G-quadruplex stabilizer agents and targeted small molecules. Complex spheroids include a stromal component modeled by human endothelial cells (HUVEC) and fibroblasts modeled by human mesenchymal stem cells (MSCs). The concentration ranges selected for each drug and investigational agent were based upon clinically achievable concentrations if the clinical Cmax of the agent was known.
Compounds. The drugs and investigational agents: pidnarulex (CX-5461; NSC782164), APTO-253 (NSC789042), BRACO-19 (NSC847499), peposertib (NSC802822), ceralasertib (NSC780249), elimusertib (NSC800525), camonsertib (NSC841442), AZD-1390 (NSC803789), olaparib (NSC753686), talazoparib (NSC767125), ART-558 (NSC835418), sotorasib (NSC818433), MRTX-1133 (NSC836407), SN-38 (NSC673596), topotecan (NSC609699), etoposide (NSC141540), doxorubicin (NSC123127), gemcitabine (NSC613327), 5-fluorouracil (NSC19893), paclitaxel (NSC125973), vemurafenib (NSC761431), panobinostat (NSC761190), R-306465 (JNJ-16241199; NSC773264), adavosertib (NSC754352), TP-3654 (NSC805149), carboplatin (NSC241240), KSQ-4279 (NSC840948), and staurosporine (NSC755774) were obtained from the National Cancer Institute (NCI) Developmental Therapeutics Program Chemical Repository (34). The FDA-approved anticancer drug set is available from the NCI Developmental Therapeutics Program. […] The stock solutions were prepared in dimethyl sulfoxide (DMSO, Sigma-Aldrich, St. Louis, MO, cat. D2650) at 800-fold the tested concentration and stored at -70 degrees C prior to their use. All drugs and investigational agents were tested over a range starting from a high concentration at or near the clinical Cmax and decreasing in half-log increments. If the clinical Cmax for an agent had not been determined, the highest concentration tested was 10 microM.
2.3 Cell Culture. All cells were maintained in an incubator at 37 degrees C and 5% CO2 with 95% humidity. The PDC lines were cultured according to standard operating procedures established by the NCI PDMR. All PDCs were thawed and cultured in Matrigel-coated flasks prepared with a working solution of 1X Ham's F-12 nutrient mix, without supplementation (Invitrogen, cat. 11765054), 100 U/mL penicillin-streptomycin (Invitrogen, cat. 15140122), and 2.5% Matrigel (Corning Inc., cat. 354248) for the first three passages. The 857933-349-R-J2-PDC line was cultured in 6C/Colon 1B media, which includes advanced DMEM/F-12 (Thermo Fisher Scientific, cat. 12634028), 10 mM HEPES (Thermo Fisher Scientific, cat. 15630080), 1X GlutaMAX supplement (Thermo Fisher Scientific, cat. 35050061), 0.1 mg/mL primocin (InvivoGen, cat. ant-pm-2), 10% defined fetal bovine serum, heat inactivated (HyClone Laboratories Inc., cat. SH30070.03HI), 50% L-WRN conditioned media (ATCC, cat. CRL-3276), 1.25 mM N-Acetyl-L-cysteine (Sigma-Aldrich, cat. A9165), 10 mM nicotinamide (Sigma-Aldrich, cat. N0636), 1X B-27 supplement (Thermo Fisher Scientific, cat. 17504044), 1X N-2 supplement (Thermo Fisher Scientific, cat. 17502048), 10 microM Y-27632 dihydrochloride (Tocris Bioscience, cat. 1254), and 50 ng/mL human EGF recombinant protein (Thermo Fisher Scientific, cat. PHG0311). The 485176-168-R4-J1-PDC line was cultured in Panc media, which includes all 6C/Colon 1B media components plus 100 ng/mL human FGF-10 (Thermo Fisher Scientific, cat. 100-26), 500 nM SB-431542 (Selleckchem, cat. S1067), and gastrin (Tocris, cat. 3006).
[…]
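Further: viability read after seven days of drug exposure.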
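Wherever viability, T/C is given: luminescence signal used as a proxy for viable cells; 100% = DMSO vehicle control wells.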

Take `C=CCn1c(=O)c2cnc(Nc3ccc(N4CCN(C)CC4)cc3)nc2n1-c1cccc(C(C)(C)O)n1`: the viability, T/C by setting is: (compound 0.0316 µM) 85% and 95.4% and 95.7%; (compound 0.1 µM) 83.5% and 87.5% and 102%; (compound 0.316 µM) 82.6% and 74.1% and 110%; (compound 1 µM) 39.1% and 30.6% and 46.6%; (compound 3.16 µM) 16.7% and 15% and 16.4%; (compound 10 µM) 11.8% and 9.58% and 9.6%. Besides, the concentration for half-maximal inhibition (IC50) (curve of compound) is 749 nM and 598 nM and 932 nM.

For `CC(C)(O)C1CCC(Nc2ccc3ncc(-c4cccc(C(F)(F)F)c4)n3n2)CC1` (centres undefined), the viability, T/C was 102% and 104% and 81.5% (compound 0.0316 µM); 86.4% and 84.5% and 92.3% (compound 0.1 µM); 93.7% and 109% and 93.8% (compound 0.316 µM); 67.9% and 78.7% and 42.9% (compound 1 µM); 29.4% and 26.8% and 30.6% (compound 3.16 µM); 35.9% and 36.4% and 44.3% (compound 10 µM). Besides, where the note is “curve of compound”, the concentration for half-maximal inhibition (IC50) is 1790 nM and 2020 nM and 839 nM.

`COc1ncnc(C2CC2)c1-c1ncc2cnn(Cc3ccc(-c4nc(C(F)(F)F)cn4C(C)C)cc3)c2n1`: the viability, T/C runs as follows: (compound 0.0316 µM) 72.1% and 66.5% and 79.3%; (compound 0.1 µM) 70% and 60.2% and 82.1%; (compound 0.316 µM) 54.8% and 66.5% and 102%; (compound 1 µM) 72.7% and 57.8% and 88.1%; (compound 3.16 µM) 64.7% and 64.6% and 68%; (compound 10 µM) 59.5% and 68.5% and 65.4%. Moreover, the half-maximal inhibitory concentration (IC50) (curve of compound) is more than 10000 nM.

For the molecule `Cc1[nH]c2ccc(F)cc2c1-c1nc2c3cccnc3c3ncccc3c2[nH]1`, the viability, T/C by setting is: (compound 1 µM) 86.1% [middle of 9 runs]; (compound 3.16 µM) 38.6% [middle of 9 runs]. In addition, the concentration for half-maximal inhibition (IC50) is, setting by setting: (compound alone, run of 03/18/2024) > 10000 nM and 3070 nM and 3210 nM; (compound alone, run of 03/26/2024) 2.16 µM [middle of 4 runs].

Consider `O=C(NO)c1cnc(N2CCN(S(=O)(=O)c3ccc4ccccc4c3)CC2)nc1`, for which the viability, T/C is 37.6% and 34.2% and 52.9% (compound 0.0316 µM); 16.6% and 16.8% and 20.5% (compound 0.1 µM); 7.21% and 7.67% and 7.55% (compound 0.316 µM); 5.31% and 5.87% and 4.07% (compound 1 µM); 0.18% and 0.1% and 0.17% (compound 3.16 µM); 0.11% (2×) and 0.08% (compound 10 µM). For the same molecule, the IC50 (curve of compound) is < 31.6 nM and 34.8 nM.

Regarding `CC1COCCN1c1cc(-c2ccnn2C)c2ccnc(-c3ccn[nH]3)c2n1` (centres undefined) + CN(C)c1ccc(Nc2c3ccc(NC(=O)CCN4CCCC4)cc3nc3cc(NC(=O)CCN4CCCC4)ccc23)cc1, the IC50 was 66.9 nM (curve of first compound, second compound 0.0316 µM); 63.7 nM (curve of first compound, second compound 0.1 µM); 53.3 nM (curve of first compound, second compound 0.316 µM); 32 nM (curve of first compound, second compound 1 µM); less than 31.6 nM (curve of first compound, second compound 3.16 µM); less than 31.6 nM (curve of first compound, second compound 10 µM). The viability, T/C (second compound 0.0316 µM, first compound 0.0316 µM) is 70%; the viability, T/C (second compound 0.0316 µM, first compound 0.1 µM) was 39%; the viability, T/C (second compound 0.0316 µM, first compound 0.316 µM) is 21.6%; the viability, T/C (second compound 0.0316 µM, first compound 1 µM) was 13.2%; the viability, T/C (second compound 0.0316 µM, first compound 3.16 µM) is 7.12%; the viability, T/C (second compound 0.0316 µM, first compound 10 µM) is 3.43%. Also, the viability, T/C is, setting by setting: (second compound 0.1 µM, first compound 0.0316 µM) 67.8%; (second compound 0.1 µM, first compound 0.1 µM) 36.9%; (second compound 0.1 µM, first compound 0.316 µM) 23.4%; (second compound 0.1 µM, first compound 1 µM) 13.1%; (second compound 0.1 µM, first compound 3.16 µM) 5.95%; (second compound 0.1 µM, first compound 10 µM) 2.75%. The viability, T/C is 62.1% (second compound 0.316 µM, first compound 0.0316 µM); 34.5% (second compound 0.316 µM, first compound 0.1 µM); 21.6% (second compound 0.316 µM, first compound 0.316 µM); 13.4% (second compound 0.316 µM, first compound 1 µM); 5% (second compound 0.316 µM, first compound 3.16 µM); 3.28% (second compound 0.316 µM, first compound 10 µM). In addition, the viability, T/C was 52% (second compound 1 µM, first compound 0.0316 µM); 27.8% (second compound 1 µM, first compound 0.1 µM); 22.7% (second compound 1 µM, first compound 0.316 µM); 14% (second compound 1 µM, first compound 1 µM); 7.85% (second compound 1 µM, first compound 3.16 µM); 3.23% (second compound 1 µM, first compound 10 µM). The viability, T/C is 30.8% (second compound 3.16 µM, first compound 0.0316 µM); 24.2% (second compound 3.16 µM, first compound 0.1 µM); 19.4% (second compound 3.16 µM, first compound 0.316 µM); 11.3% (second compound 3.16 µM, first compound 1 µM); 5.18% (second compound 3.16 µM, first compound 3.16 µM); 2.8% (second compound 3.16 µM, first compound 10 µM). For the same molecule, the viability, T/C runs as follows: (second compound 10 µM, first compound 0.0316 µM) 4.8%; (second compound 10 µM, first compound 0.1 µM) 3.22%; (second compound 10 µM, first compound 0.316 µM) 2.72%; (second compound 10 µM, first compound 1 µM) 2.01%; (second compound 10 µM, first compound 3.16 µM) 1.02%; (second compound 10 µM, first compound 10 µM) 0.62%.

The record behind these values is PubChem BioAssay AID2060504 (Molecular Pharmacology Branch, DTP, NCI, 2025).
